# Source: ChEMBL document CHEMBL1201862, “PubChem BioAssay data set” (2004)
# Active and inactive are the calls of the source. No stated cut-off is given here; in the data, actives have a measured IC50 and inactives only a lower limit.
# Target: Envelope glycoprotein gp160 (Human immunodeficiency virus 1, UniProt Q6QLK5)
# Assay: inhibitors of HIV fusion peptide binding, primary screen, biochemical, uHTS, fluorescence dequenching (AID 1986)
# Chain of Envelope glycoprotein gp160 (Q6QLK5 whole entry, the tested form may be a part): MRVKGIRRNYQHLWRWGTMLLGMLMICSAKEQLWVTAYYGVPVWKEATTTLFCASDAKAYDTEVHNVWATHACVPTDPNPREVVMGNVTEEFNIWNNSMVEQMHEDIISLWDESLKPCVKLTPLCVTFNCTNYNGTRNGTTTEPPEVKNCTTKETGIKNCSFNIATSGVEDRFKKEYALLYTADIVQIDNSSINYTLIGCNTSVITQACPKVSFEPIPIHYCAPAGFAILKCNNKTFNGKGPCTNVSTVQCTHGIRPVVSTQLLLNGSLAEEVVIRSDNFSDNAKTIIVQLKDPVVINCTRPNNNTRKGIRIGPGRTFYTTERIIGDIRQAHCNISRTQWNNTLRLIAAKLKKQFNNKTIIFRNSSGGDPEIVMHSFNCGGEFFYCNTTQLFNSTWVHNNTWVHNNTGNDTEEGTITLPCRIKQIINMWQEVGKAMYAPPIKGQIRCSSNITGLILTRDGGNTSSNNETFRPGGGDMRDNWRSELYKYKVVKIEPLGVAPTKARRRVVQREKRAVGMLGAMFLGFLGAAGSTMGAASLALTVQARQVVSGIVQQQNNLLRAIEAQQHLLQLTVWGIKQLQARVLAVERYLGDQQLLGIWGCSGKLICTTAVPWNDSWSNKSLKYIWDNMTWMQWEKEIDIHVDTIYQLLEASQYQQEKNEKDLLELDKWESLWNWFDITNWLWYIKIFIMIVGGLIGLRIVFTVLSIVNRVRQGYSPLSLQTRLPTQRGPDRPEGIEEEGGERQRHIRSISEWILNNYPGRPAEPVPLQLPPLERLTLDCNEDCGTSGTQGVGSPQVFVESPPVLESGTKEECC
row,Compound,IC50
1,O=C(O)c1cc(NN=C2c3ccccc3-c3ccccc32)ccc1Cl,23.7 µM (active)
2,CCOc1cc(/C=C2\SC(=S)N(C(C(=O)O)c3ccccc3)C2=O)ccc1O (stereo not drawn),22.6 µM (active)
3,Cc1ccc(-c2cc(C(=O)Nc3ccc(S(=O)(=O)Nc4onc(C)c4C)cc3)c3ccccc3n2)cc1,18.1 µM (active)
